Test results reported in patent US10428083B2, “Heterocyclylmethyl-thienouracile as antagonists of the adenosine-A2B-receptor” (BAYER PHARMA AKTIENGESELLSCHAFT, priority 2015, dated 2019).
Where two headings read alike, the source gives them in different places.

Biological target: human adenosine A2b receptor (Homo sapiens (Human), UniProt P29275)
Experiment: Cellular in vitro reporter gene test for A2b receptor activity (CHO-K1, CRE-luciferase, NECA stimulation)
Type: cell-based
In short: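 CHO-K1 cells with CRE-driven luciferase; antagonists co-incubated with NECA at its EC50, determined in a pre-experiment on each test day. Luciferase read by luminescence 3 h after NECA addition.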

[1] = recombinant CHO-K1 cell line, CRE-luciferase reporter, antagonism of EC50 concentration of NECA, in some cases means of several determinations, rounded to two significant figures, read-out: A2b receptor IC50

Chain of human adenosine A2b receptor (P29275 whole entry): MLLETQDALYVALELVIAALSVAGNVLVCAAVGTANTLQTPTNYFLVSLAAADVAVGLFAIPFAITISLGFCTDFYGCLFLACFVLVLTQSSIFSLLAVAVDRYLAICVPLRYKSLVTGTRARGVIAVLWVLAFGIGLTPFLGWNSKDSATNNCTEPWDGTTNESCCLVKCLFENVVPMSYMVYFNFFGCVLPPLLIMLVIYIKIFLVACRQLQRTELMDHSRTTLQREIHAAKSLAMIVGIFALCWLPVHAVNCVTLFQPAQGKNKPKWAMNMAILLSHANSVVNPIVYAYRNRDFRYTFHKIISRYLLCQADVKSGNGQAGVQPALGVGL

| SMILES | IC50 [1] | IC50 |
| --- | --- | --- |
| CCn1c(=O)c2c(C)c(CN3CCNC3=O)sc2n(CC2CC2(F)F)c1=O (single isomer, unassigned; enantiomer 1) [Example 55, 1-[(2,2-Difluorocyclopropyl)methyl]-3-ethyl-5-methyl-6-[(2-oxoimidazolidin-1-yl)methyl]thieno[2,3-d]pyrimidine-2,4(1H,3H)-dione (Enantiomer 1)] | 1.3 nM |  |
| C=CCn1cnn(Cc2sc3c(c2C)c(=O)n(CC)c(=O)n3CCOC)c1=O [Example 112, 6-[(4-Allyl-5-oxo-4,5-dihydro-1H-1,2,4-triazol-1-yl)methyl]-3-ethyl-1-(2-methoxyethyl)-5-methylthieno[2,3-d]pyrimidine-2,4(1H,3H)-dione] | 500 nM |  |
| CCOCCn1c(=O)c2c(C)c(CN3CCNC(=O)C3=O)sc2n(CCOC)c1=O [Example 404, 6-[(2,3-Dioxopiperazin-1-yl)methyl]-3-(2-ethoxyethyl)-1-(2-methoxyethyl)-5-methylthieno[2,3-d]pyrimidine-2,4(1H,3H)-dione] | 120 nM |  |
| Cc1c(CN2CCNC2=S)sc2c1c(=O)n(CC(F)(F)F)c(=O)n2CC1COC1 [Example 158, 5-Methyl-1-(oxetan-3-ylmethyl)-6-[(2-thioxoimidazolidin-1-yl)methyl]-3-(2,2,2-trifluoroethyl)thieno[2,3-d]pyrimidine-2,4(1H,3H)-dione] | 5.5 nM |  |
| Cc1c(CN2CCNC2=O)sc2c1c(=O)n(C(C)C)c(=O)n2CC1CCCO1 (single isomer, unassigned) [Example 187, 3-Isopropyl-5-methyl-6-[(2-oxoimidazolidin-1-yl)methyl]-1-(tetrahydrofuran-2-ylmethyl)thieno[2,3-d]pyrimidine-2,4(1H,3H)-dione] | 6.3 nM |  |
| COCCn1c(=O)n(CC(F)(F)F)c(=O)c2c(C)c(CN3CCNC3=O)sc21 [Example 94, 1-(2-Methoxyethyl)-5-methyl-6-[(2-oxoimidazolidin-1-yl)methyl]-3-(2,2,2-trifluoroethyl)thieno[2,3-d]pyrimidine-2,4(1H,3H)-dione] | 7.7 nM |  |
| CCn1c(=O)c2c(C(F)F)c(CN3CCNC3=S)sc2n(CCC(F)(F)F)c1=O [Example 44, 5-(Difluoromethyl)-3-ethyl-6-[(2-thioxoimidazolidin-1-yl)methyl]-1-(3,3,3-trifluoropropyl)thieno[2,3-d]pyrimidine-2,4(1H,3H)-dione] | 5.2 nM |  |
| Cc1c(CN2CCNC2=NC#N)sc2c1c(=O)n(C(C)C)c(=O)n2CC1CCO1 (single isomer, unassigned) [Example 266, [1-{[3-Isopropyl-5-methyl-1-(oxetan-2-ylmethyl)-2,4-dioxo-1,2,3,4-tetrahydrothieno[2,3-d]pyrimidin-6-yl]methyl}imidazolidin-2-ylidene]cyanamide] | 75 nM |  |
| Cc1c(CN2CCN(C)C2=S)sc2c1c(=O)n(CC(F)(F)F)c(=O)n2CCC(F)(F)F [Example 306, 5-Methyl-6-[(3-methyl-2-thioxoimidazolidin-1-yl)methyl]-3-(2,2,2-trifluoroethyl)-1-(3,3,3-trifluoropropyl)thieno[2,3-d]pyrimidine-2,4(1H,3H)-dione] | 5.9 nM |  |
| COCCn1c(=O)n(CCCF)c(=O)c2c(C)c(CN3CCNC3=O)sc21 [Example 224, 3-(3-Fluoropropyl)-1-(2-methoxyethyl)-5-methyl-6-[(2-oxoimidazolidin-1-yl)methyl]thieno[2,3-d]pyrimidine-2,4(1H,3H)-dione] | 31 nM |  |
| COC(=O)N=C1NCCN1Cc1sc2c(c1C)c(=O)n(C(C)C)c(=O)n2CC1CCCO1 (single isomer, unassigned) [Example 460, Methyl [1-{[3-isopropyl-5-methyl-2,4-dioxo-1-(tetrahydrofuran-2-ylmethyl)-1,2,3,4-tetrahydrothieno[2,3-d]pyrimidin-6-yl]methyl}imidazolidin-2-ylidene]carbamate] | 22 nM |  |
| CCn1c(=O)c2c(C)c(CN3CCNC(=O)C3=O)sc2n(CCOC2CC2)c1=O [Example 270, 1-[2-(Cyclopropyloxy)ethyl]-6-[(2,3-dioxopiperazin-1-yl)methyl]-3-ethyl-5-methylthieno[2,3-d]pyrimidine-2,4(1H,3H)-dione] | 38 nM |  |
| COCCn1c(=O)n(CCC=C(F)F)c(=O)c2c(C)c(CN3CCNC3=O)sc21 [Example 322, 3-(4,4-Difluorobut-3-en-1-yl)-1-(2-methoxyethyl)-5-methyl-6-[(2-oxoimidazolidin-1-yl)methyl]thieno[2,3-d]pyrimidine-2,4(1H,3H)-dione] | 1.3 nM |  |
| Cc1c(Cn2[nH]ccc2=O)sc2c1c(=O)n(CC(F)(F)F)c(=O)n2CC1CCCO1 (racemic) [Example 284, 5-Methyl-6-[(5-oxo-2,5-dihydro-1H-pyrazol-1-yl)methyl]-1-(tetrahydrofuran-2-ylmethyl)-3-(2,2,2-trifluoroethyl)thieno[2,3-d]pyrimidine-2,4(1H,3H)-dione] | 79 nM |  |
| COCCn1c(=O)n(C(C)C(F)(F)F)c(=O)c2c(C)c(CN3CCNC3=O)sc21 (single isomer, unassigned) [Example 498, 1-(2-Methoxyethyl)-5-methyl-6-[(2-oxoimidazolidin-1-yl)methyl]-3-(1,1,1-trifluoropropan-2-yl)thieno[2,3-d]pyrimidine-2,4(1H,3H)-dione] | 79 nM |  |
| Cc1c(Cn2cc[nH]c2=O)sc2c1c(=O)n(CC(F)(F)F)c(=O)n2CC1CCCO1 (single isomer, unassigned) [Example 342, 5-Methyl-6-[(2-oxo-2,3-dihydro-1H-imidazol-1-yl)methyl]-1-(tetrahydrofuran-2-ylmethyl)-3-(2,2,2-trifluoroethyl)thieno[2,3-d]pyrimidine-2,4(1H,3H)-dione] | 13 nM |  |
| CCn1c(=O)c2c(C)c(CN3CCOCC3=O)sc2n(CCC(F)(F)F)c1=O [Example 14, 3-Ethyl-5-methyl-6-[(3-oxomorpholin-4-yl)methyl]-1-(3,3,3-trifluoropropyl)thieno[2,3-d]pyrimidine-2,4(1H,3H)-dione] | 19 nM |  |
| CCn1c(=O)c2c(C)c(CN3CCNC3=O)sc2n(CC2CCCO2)c1=O (racemic) [Example 68, 3-Ethyl-5-methyl-6-[(2-oxoimidazolidin-1-yl)methyl]-1-(tetrahydrofuran-2-ylmethyl)thieno[2,3-d]pyrimidine-2,4(1H,3H)-dione (racemate)] | 8.9 nM |  |
| Cc1c(CN2CCNC2=S)sc2c1c(=O)n(CC(F)F)c(=O)n2CCC(F)(F)F [Example 160, 3-(2,2-Difluoroethyl)-5-methyl-6-[(2-thioxoimidazolidin-1-yl)methyl]-1-(3,3,3-trifluoropropyl)thieno[2,3-d]pyrimidine-2,4(1H,3H)-dione] | 2.9 nM |  |
| CCn1c(=O)c2c(C)c(CN3CCNC3=S)sc2n(CCC(F)(F)F)c1=O [Example 28, 3-Ethyl-5-methyl-6-[(2-thioxoimidazolidin-1-yl)methyl]-1-(3,3,3-trifluoropropyl)thieno[2,3-d]pyrimidine-2,4(1H,3H)-dione] | 1.9 nM |  |
| CCOCCn1c(=O)c2c(C)c(CN3CCNC3=S)sc2n(CCC(F)(F)F)c1=O [Example 301, 3-(2-Ethoxyethyl)-5-methyl-6-[(2-thioxoimidazolidin-1-yl)methyl]-1-(3,3,3-trifluoropropyl)thieno[2,3-d]pyrimidine-2,4(1H,3H)-dione] | 6.5 nM |  |
| COC(C)(C)Cn1c(=O)c2c(C)c(CN3CCNC3=S)sc2n(CCC(F)(F)F)c1=O [Example 170, 3-(2-Methoxy-2-methylpropyl)-5-methyl-6-[(2-thioxoimidazolidin-1-yl)methyl]-1-(3,3,3-trifluoropropyl)thieno[2,3-d]pyrimidine-2,4(1H,3H)-dione] | 4.4 nM |  |
| COCCn1c(=O)c2c(C)c(CN3CCNC3=O)sc2n(CCOC)c1=O [Example 231, 1,3-Bis(2-methoxyethyl)-5-methyl-6-[(2-oxoimidazolidin-1-yl)methyl]thieno[2,3-d]pyrimidine-2,4(1H,3H)-dione] | 21 nM |  |
| CCCn1c(=O)n(CC)c(=O)c2c(C)c(CN3CCNC3=O)sc21 [Example 77, 3-Ethyl-5-methyl-6-[(2-oxoimidazolidin-1-yl)methyl]-1-propylthieno[2,3-d]pyrimidine-2,4(1H,3H)-dione] | 5.6 nM |  |
| CCn1c(=O)c2c(C)c(CN3CCNC3=NC#N)sc2n(CCC(F)(F)F)c1=O [Example 255, [1-{[3-Ethyl-5-methyl-2,4-dioxo-1-(3,3,3-trifluoropropyl)-1,2,3,4-tetrahydrothieno[2,3-d]pyrimidin-6-yl]methyl}imidazolidin-2-ylidene]cyanamide] | 13 nM |  |
| Cc1c(CN2CCNC2=NC#N)sc2c1c(=O)n(C(C)C(F)(F)F)c(=O)n2CCC(F)(F)F (racemic) [Example 451, [1-{[5-Methyl-2,4-dioxo-3-(1,1,1-trifluoropropan-2-yl)-1-(3,3,3-trifluoropropyl)-1,2,3,4-tetrahydrothieno[2,3-d]pyrimidin-6-yl]methyl}imidazolidin-2-ylidene]cyanamide] |  | 10 nM |
| Cc1c(CN2CCNC2=O)sc2c1c(=O)n(CC(C)C)c(=O)n2CC1CCO1 (single isomer, unassigned) [Example 195, 3-Isobutyl-5-methyl-1-(oxetan-2-ylmethyl)-6-[(2-oxoimidazolidin-1-yl)methyl]thieno[2,3-d]pyrimidine-2,4(1H,3H)-dione] | 41 nM |  |
| Cc1c(CN2CCNC2=S)sc2c1c(=O)n(CC(F)(F)F)c(=O)n2CC1CCO1 (racemic) [Example 154, 5-Methyl-1-(oxetan-2-ylmethyl)-6-[(2-thioxoimidazolidin-1-yl)methyl]-3-(2,2,2-trifluoroethyl)thieno[2,3-d]pyrimidine-2,4(1H,3H)-dione] | 7.1 nM |  |
| CCn1c(=O)c2c(C)c(CN3CCNC3=NC(=O)OC)sc2n(CCOC)c1=O (single isomer, unassigned) [Example 118, Methyl [1-{[3-ethyl-1-(2-methoxyethyl)-5-methyl-2,4-dioxo-1,2,3,4-tetrahydrothieno[2,3-d]pyrimidin-6-yl]methyl}imidazolidin-2-ylidene]carbamate] | 3.1 nM |  |
